Tests used:
[1] = in water and 0.1 N HCl at room temperature; cited from earlier work
[2] = Solubility in 0.1 N HCl / water; format: physicochemical
[3] = cited from earlier work

Row | solubility ([2]; at a pH corresponding to 0.1 N HCl, room temperature) | solubility ([2]; in 0.1 N HCl (aqueous solution of 0.1 N hydrochloric acid)) [mg/100 ml] | SMILES | solubility (in words) [1] | pKa value [3]
1 |  |  | CC(=O)Oc1ccccc1C(=O)O [acetylsalicylic acid] | practically insoluble | 
2 |  |  | COc1ccc2c(c1)c(CC(=O)O)c(C)n2C(=O)c1ccc(Cl)cc1 [indometacin] | practically insoluble | 
3 | less than 1 mg/100 ml | < 1 | CN1C(C(=O)Nc2ccccn2)=C(O)c2sc(Cl)cc2S1(=O)=O [lornoxicam] |  | about 4.7

Source: patent US6599529B1, “Modified release multiple-units compositions of non-steroid anti-inflammatory drug substances (NSAIDs)” (Nycomed Danmark A/S, priority 1997, dated 2003)
